Results reported in US20110027858A1, “Method of Modifying Fungal Morphology” (University of Akron, priority 2009, published 2011).

Tests used:
[1] = test system: T. reesei; assay: Shake flask growth of T. reesei with Triton X-100 (Example 6): morphology, growth, enzyme activity; type: cell-based, Trichoderma reesei RUT C30
Description: The effect of growing a fungus in a growth medium containing Triton X-100 was tested. A culture was grown on a growth medium containing (g/L): (NH4)2SO4 1.4, KH2PO4 2, MgSO4.7H2O 0.3, CaCl2.2H2O 0.4, urea 0.3, peptone 1.0, Tween-80 0.2, FeSO4.7H2O 0.005, MnSO4.H2O 0.0016, ZnSO4.7H2O 0.0014, CoCl2 0.002, and lactose 10.0. Initially the unadjusted pH was 5.5 after autoclaving.
Test cultures were grown in 50 mL volume in 250 mL flasks at 28° C. in a Que Orbital shaker (Model 4703, Parkersburg, W.Va., USA) at 250 rpm without pH control, initially at 5.5, for 7 days. Triton X-100 was tested at the following concentrations (g/L): 0.1, 0.3, 0.6, 0.8, 1.0, 1.5.
Cultures were followed for 7 days and visually checked for bulk morphology. Periodic monitoring was done aseptically by collecting a 2 mL representative sample every 24 hrs to measure cell concentration, enzyme activity, sugar concentration, and residual surfactant amounts.

[2] = test system: T. reesei; assay: Effects of several surfactants on morphology (flocculation / pellet formation) of T. reesei; type: cell-based, Trichoderma reesei RUT C30; conditions: for Effective in changing morphology?: compared with 0.5 g/L and 1 g/L surfactant concentrations
Description: The effects of several surfactants on the morphology of T. reesei were studied. TABLE 1 summarizes the observations of the effects of several surfactants regarding to flocculation or formation of pellets in T. reesei. […] All surfactants listed in TABLE 1 were compared with 0.5 g/L and 1 g/L surfactant concentrations.

“4-(1,1,3,3-tetramethylbutyl)phenyl-polyethylene glycol [Triton X-100]” was tested. Which “global average doubling time” value ([1]; across tested Triton concentrations, following the lag phase) did it give?
The value was 9.1 ± 1.8 h.

What about the “average increase in the enzyme activity” value ([1]; additive concentration in excess of 0.1 g/L) of the same substance?
The value was 73±12%.

What about the “lag compared to the surfactant free system” value ([1]; concentrations above 0.1 g/L) of the same substance?
The value was “one-day”.

And the “concentration producing "pellet" growth” value ([1]; tested at 0.1-1.5 g/L, 7 days, 28° C., 250 rpm)?
Its value is “greater than 0.3 g/L”.

And the “Size of generally uniform pellets formed” value [2]?
The value was “uniform ~1 mm pellets”.

And the “Effective in changing morphology?” value [2]?
The value was “YES”.

With “polyoxyethylene sorbitan monolaurate [TWEEN ® 20]” as the substance, how does the “Description: tendency toward cell flocculation with increasing surfactant concentration” value ([2]; 0.5 g/L and 1 g/L surfactant, flocculation is correlated with pellet formation) read?
The value was “shows tendencies toward increased”.

And the “Effective in changing morphology?” value [2]?
The value was “YES”.
